Experimental data from patent US20220023300A1, “THERAPEUTIC AND PROPHYLACTIC METHOD FOR TUMOR TREATABLE WITH ENDOCRINE THERAPY BY COMBINED USE OF FIBROBLAST GROWTH FACTOR RECEPTOR INHIBITOR WITH ENDOCRINE THERAPY” (TAIHO PHARMACEUTICAL CO., LTD., priority 2018, published 2022).

Key:
[1] = system: MDA-MB-134VI cells; assay: Cell growth-inhibitory effect of combined use (T/C), CellTiter-Glo 2.0; settings: for viability at 0.1 µM: Homo sapiens, MDA-MB-134-VI, 120 h, read-out: T/C (treated/control) cell viability
Method: The cell viability was measured using CellTiter-Glo 2.0 (Promega). […] The number of cells seeded was 500 cells/80 μL per well. […] After drug addition, the cells were further incubated at 37° C. and 5% CO2 for 120 hours. Experiments were carried out in triplicate (3 wells per treatment group). The cell viability was calculated by adding 100 μL of CellTiter-Glo 2.0 reagent per well, incubating at room temperature for 30 minutes, and then measuring the chemiluminescence of each well with a plate reader (EnSpire). The cell viability in the case of drug addition was calculated as a ratio with respect to the control group, which was set to 100%, according to the following formula, and the average value of the data of three wells was used for the analysis.
Cell viability (%)=(chemiluminescence in the case of drug addition)/(chemiluminescence of control group)×100

[2] = system: breast cancer; settings: phase II; subpopulation of FGF pathway-amplified breast cancer patients; cited from earlier work

Molecule | viability at 0.1 µM [1] | median value of the mean progression-free survival (PFS) [2] | T/C (treated/control) cell viability ([1]; MDA-MB-134VI, drug alone at 1 μM, 120 hours)
C=CC(=O)N1CC[C@H](n2nc(C#Cc3cc(OC)cc(OC)c3)c3c(N)ncnc32)C1 [compound 1, (S)-1-(3-(4-amino-3-((3,5-dimethoxyphenyl)ethynyl)-1H-pyrazolo[3,4-d]pyrimidin-1-yl)pyrrolidin-1-yl)prop-2-en-1-one] | 35% | – | –
C[C@]12CC[C@@H]3c4ccc(O)cc4C[C@@H](CCCCCCCCC[S+]([O-])CCCC(F)(F)C(F)(F)F)[C@H]3[C@@H]1CC[C@@H]2O (stereo partly shown) [fulvestrant] | 75% | 5.5 months | –
4-hydroxytamoxifen | – | – | 65%
